Usually Ki stands for a measure of affinity in units of concentration, obtained from inhibition or displacement. The term kinact denotes the rate constant of inactivation at saturating inhibitor.

Holding throughout (format): ADME
Data set [1] addresses T1, CYP2E1 (Homo sapiens, UniProt P05181). The data set can be described thus: Inhibition of human CYP2E1 assessed as chlorzoxazone 6-hydroxylase activity at 2.5 mM after 72 hrs preincubation by HPLC analysis (RVb = 100%). Also on record: scale not given: the % may be the effect or the level left. The following applies: probe chlorzoxazone (6-hydroxylation), read-out: Activity.

The target of data set [2] is T2, Cytochrome P450 2E1 (Homo sapiens, UniProt P05181). Put plainly: Inhibition of human CYP2E1-mediated chlorzoxazone hydroxylase activity at 2.5 to 40 mM after 72 hrs by LC-MS/MS analysis in presence of 1 mM NADPH. As to conditions: recombinant enzyme, 40000 µM; call rule not given here.
Data set [3] addresses T1, CYP2E1. Put plainly: Inhibition of human CYP2E1 assessed as chlorzoxazone 6-hydroxylase activity at 20 mM after 72 hrs preincubation by HPLC analysis (RVb = 100%). Further details: scale not given: the % may be the effect or the level left. The following applies: probe chlorzoxazone (6-hydroxylation), read-out: Activity.
Data set [4] has as its target T1, CYP2E1. Put plainly: Inhibition of human CYP2E1 assessed as chlorzoxazone 6-hydroxylase activity at 40 mM after 72 hrs preincubation by HPLC analysis (RVb = 100%). Also on record: scale not given: the % may be the effect or the level left. The following applies: probe chlorzoxazone (6-hydroxylation), read-out: Activity.
In data set [5] the target is T1, CYP2E1. Put plainly: Inhibition of human CYP2E1 assessed as chlorzoxazone 6-hydroxylase activity at 40 mM after 72 hrs preincubation by HPLC analysis in presence of 1 mM NADPH (RVb = 100%). The following applies: probe chlorzoxazone (6-hydroxylation), read-out: Activity. Also on record: scale not given: the % may be the effect or the level left.
Data set [6] has as its target T1, CYP2E1. The data set can be described thus: Inhibition of human CYP2E1 assessed as chlorzoxazone 6-hydroxylase activity at 20 mM after 72 hrs preincubation by HPLC analysis in presence of 1 mM NADPH (RVb = 100%). Further details: scale not given: the % may be the effect or the level left. The following applies: probe chlorzoxazone (6-hydroxylation), read-out: Activity.

The target in data set [7] is T2, Cytochrome P450 2E1. The data set can be described thus: (§1) Inhibition of human CYP2E1 assessed as chlorzoxazone 6-hydroxylase activity by HPLC analysis.
Data set [8] concerns the target T1, CYP2E1. The data set is described as §1. As to conditions: human, probe chlorzoxazone (6-hydroxylation).
Data set [9] has as its target T1, CYP2E1. The data set can be described thus: Inhibition of human CYP2E1 assessed as chlorzoxazone 6-hydroxylase activity at 20 mM after 72 hrs preincubation by HPLC analysis in presence of 1 mM NADPH and 5 mM glutathione (RVb = 100%). Further details: scale not given: the % may be the effect or the level left. The following applies: probe chlorzoxazone (6-hydroxylation), read-out: Activity.

Data set [10] has as its target T2, Cytochrome P450 2E1. Put plainly: Inhibition of human CYP2E1-mediated chlorzoxazone hydroxylase activity at 2.5 to 40 mM by LC-MS/MS analysis. As to conditions: recombinant enzyme, 40000 µM, TDE = time-dependent effect.

T1 sequence (P05181 whole entry): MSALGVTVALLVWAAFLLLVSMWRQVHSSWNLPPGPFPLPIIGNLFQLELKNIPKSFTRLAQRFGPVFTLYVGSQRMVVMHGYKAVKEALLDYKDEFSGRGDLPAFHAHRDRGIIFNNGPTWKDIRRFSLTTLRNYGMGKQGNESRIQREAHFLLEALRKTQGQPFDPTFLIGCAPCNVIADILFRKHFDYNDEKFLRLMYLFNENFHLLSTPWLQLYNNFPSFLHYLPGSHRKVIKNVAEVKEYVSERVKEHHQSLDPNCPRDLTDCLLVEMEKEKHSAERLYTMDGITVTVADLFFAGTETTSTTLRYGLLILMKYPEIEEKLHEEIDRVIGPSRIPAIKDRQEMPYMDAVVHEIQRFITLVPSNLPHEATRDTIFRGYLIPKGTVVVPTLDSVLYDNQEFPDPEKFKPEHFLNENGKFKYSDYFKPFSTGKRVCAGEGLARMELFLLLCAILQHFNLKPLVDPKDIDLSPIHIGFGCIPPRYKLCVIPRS
T2 sequence (P05181 whole entry): as above

Turning to `Nn1nnc2ccccc21`, the activity at 72 h, 2500 µM in data set [1] was < 1%.
On to `CC(=O)Nc1cccc(O)c1` [METACETAMOL], for which the entries for the “inhibition (INH)” value in [2] and in [10] were “Active” and “tde”, respectively. The activity at 72 h, 2500 µM in [1] stood at 97.6%. Moreover, the activity at 72 h, 20000 µM was determined as 89.3% in data set [3], 64.8% in data set [6] and 91.3% in [9]. For the same compound, the figures for the activity at 72 h, 40000 µM in [4] and in data set [5] were 65.7% and 43.7%, respectively. For the same compound, in data set [7], the Ki is 9.5 mM. Also, in data set [8], the kinact was 0.000133 s⁻¹.

These data come from ChEMBL document CHEMBL3526128, “Covalent modification and time-dependent inhibition of human CYP2E1 by the meta-isomer of acetaminophen” (Drug Metab Dispos, 2012).
